Results reported in US20240024479A1, “NK CELLS OR T CELLS EXPRESSING CHIMERIC HEMATOPOIETIC GROWTH FACTOR RECEPTORS AND METHODS OF USE” (The United States of America, as represented by the …, priority 2020, published 2024).

How the values were obtained:
c-MPL+ NK-92 cells = assay: In vitro cell expansion of c-MPL+ NK-92 cells; format: cell-based, human; settings: day 8
From the text: Lentiviral production and transduction: Lentivirus gene expression vectors encoding EGFP-P2A linker-human EPOR or EGFP-P2A-human c-MPL were cloned according to our design by VectorBuilder (TX, USA). Plasmid DNA for the above and pCMV-dR8.2 dvpr and pCMV-VSV-G packaging plasmids was purified using ZymoPUREII-EndoZero plasmid maxiprep kit (Zymo Research, CA). Lentiviral particles were generated with HEK293T cells and Lipofectamine3000 reagent (Thermo Fisher Scientific, MA) following the manufacturers' instructions. Viral supernatant was harvested at 24 and 48 hours, pooled, and concentrated with lenti-X concentrator (Takara Bio, Japan) or by centrifugation at 18,600 rpm for 2 hours at 4° C. […] After 5 days post-transduction, cells were stained and sorted with fluorescence-activated cell sorting (FACS) using a BD FACSAria II to purify GFP^+EPOR^+ and GFP^+c-MPL^+ NK cell populations.
In vitro cell expansion cultures: The NK-92 (5×10^4 cell/ml) and KHYG-1 (1×10^4 cell/ml) cells were cultured in 1 ml of complete medium in 24-well plate. […] Trypan blue negative cells were counted every other day. […] Viable cells were counted and percentage of GFP^+ cells was acquired on indicated days (NK: day 4 and 6, T: day 3 and 6). The fold change of GFP^+ cells was calculated by multiplying the counted cell number times the fraction GFP^+.

[1] = tested on: GFP+ MPL+ transduced cells; assay: Cell surface phenotype of c-MPL-transduced primary NK cells; format: cell-based, human
Description: Human NK cells were stimulated and transduced with c-MPL/GFP lentiviral vectors. […] After 4 days, cellular function was assessed by mixing at a 1:1 ratio with K562 target cells and assessing (FIG. 13A) NK cell degranulation (by surface anti-CD107a staining) two hours later, or (FIG. 13B) intracellular IFN-γ and TNF-α four hours after addition of K562. Results for gated GFP transduced cells or independent untransduced cultures from the same donors are shown. The cell surface phenotype of the NK cells was also assessed after 4 days of culture with cytokines as indicated (FIG. 13C).
Flow cytometry, reagents and pathway analysis: Fluorochrome-conjugated monoclonal antibodies were used as follows: BD Biosciences: CD56-PE-Cy7 (NCAM16.2), CD3-PE (UCHT1), c-MPL-PE (1.6.1), STAT5(pY694)-Alexa Fluor647 (47/stat5(pY694)), NKp46-APC (9E2), NKp44-PE (p44-8), FAS-PE (DX2) CD62L-V450 (DREG-56); R&D systems: EPOR-PE (FAB307P); Biolegend: Bc1-2-PE (100), TRAIL-APC (RIK-2), CXCR4-BV421 (12G5), KIR3DL1-BV421 (DX9); Abcam: Bcl-xL-PE (ab208747); Cell signaling technology: P-p44/42 MAPK-Alexa Fluor647 (E10) and p-S6 ribosomal protein-PE (D57.2.2E); Beckman Coulter: NKG2A-PE (Z199), KIR2DL1/S1-PE (EB6B), KIR2DL2/3-PE/Cy5.5 (GL183). Staining was performed in phosphate-buffered saline (PBS) with 2% FBS and 2 mM EDTA and analyzed on a BD LSRFortessa machine. […] The data were analyzed on FlowJo software.

Raji tumor cells = assay: Flow cytometry based killing assay, c-MPL+ NK-92 effectors vs Raji; format: cell-based, human; settings: c-MPL+ NK-92 exposed to TPO+LD IL-2, 4 hours
Description: (§1) The target cells were labeled with 1 μM cell trace violet in some experiments (Thermo Fisher Scientific). The effector and target cells were incubated together in duplicate wells at specific E:T ratio in complete medium without cytokines for 4 hours (total cell number: 200,000 to 250,000 per well in 96-well plate). 7-AAD and Sphero AccuCount Fluorescent particles (Spherotech, IL) were added before analysis by flow cytometry. The absolute number of viable 7-AAD negative target cells was calculated according to bead numbers added (Cooper et al., Leukemia 32:1970-1983, 2018). The percentage of dead cells was calculated relative to target cell only control wells.

parental NK-92 cell line = assay: In vitro cell expansion of parental NK-92; format: cell-based, human; settings: EPO or TPO administration
Description: In vitro cell expansion cultures: The NK-92 (5×10^4 cell/ml) and KHYG-1 (1×10^4 cell/ml) cells were cultured in 1 ml of complete medium in 24-well plate. […] Trypan blue negative cells were counted every other day. […] The short-term cell expansion assay was performed in similar fashion, except cells were initially cultured without IL-2 overnight before adding different cytokines and enumerating the cell number. For competitive primary NK and T cell expansion assay, all transduced cells (5×10^5/ml for NK and 4×10^5/ml for T cell) containing a mixture of GFP positive (transduced) and GFP negative (untransduced) cells were plated on day 0. Fresh medium with appropriate supplements was replaced every other day for NK cells and only on day 3 for T cell experiment. Viable cells were counted and percentage of GFP^+ cells was acquired on indicated days (NK: day 4 and 6, T: day 3 and 6). The fold change of GFP^+ cells was calculated by multiplying the counted cell number times the fraction GFP^+.

GFP+ MPL+ population = assay: Parallel in vitro cultures of the mixed transduced NK cells; format: cell-based, human; settings: only TPO
[2] = tested on: c-MPL transduced NK cells; assay: Proliferation of c-MPL-expressing human NK cells with thrombopoietin mimetics; format: cell-based; settings: 4-5 days culture
Description: FIGS. 16A-16C show proliferation of human NK cells transduced to express GFP and c-MPL cultured for 4-5 days with the indicated concentrations of thrombopoietin (FIG. 16A), romiplostim (FIG. 16B), or eltrombopag (FIG. 16C). […] Mean and SEM of results from 3 blood donors are shown.
NK cells from PBMC from three blood donors were stimulated and transduced to express GFP and c-MPL, then were cultured for 4-5 days with thrombopoietin, romiplostim, or eltrombopag.

721.221 = assay: Flow cytometry based killing assay, c-MPL+ NK-92 effectors vs 721.221; format: cell-based, human; settings: c-MPL+ NK-92 with TPO administration
Description: as §1

c-MPL transduced T cells = assay: Competitive expansion of c-MPL-transduced primary T cells; format: cell-based, human
Description: In vitro cell expansion cultures: The NK-92 (5×10^4 cell/ml) and KHYG-1 (1×10^4 cell/ml) cells were cultured in 1 ml of complete medium in 24-well plate. […] Trypan blue negative cells were counted every other day. […] For competitive primary NK and T cell expansion assay, all transduced cells (5×10^5/ml for NK and 4×10^5/ml for T cell) containing a mixture of GFP positive (transduced) and GFP negative (untransduced) cells were plated on day 0. Fresh medium with appropriate supplements was replaced every other day for NK cells and only on day 3 for T cell experiment. Viable cells were counted and percentage of GFP^+ cells was acquired on indicated days (NK: day 4 and 6, T: day 3 and 6). The fold change of GFP^+ cells was calculated by multiplying the counted cell number times the fraction GFP^+.

## TPO: recombinant human thrombopoietin, ligand of the c-MPL receptor; 50 ng/ml rhTPO (R&D)
c-MPL+ NK-92 cells; TPO alone
  fold expansion of c-MPL+ NK-92 cells: 7 fold
c-MPL+ NK-92 cells; TPO plus 1 U/ml IL-2
  fold expansion of c-MPL+ NK-92 cells: 23.25 fold
[1]; TPO added to media containing 25 U/ml IL-2, normalized to each donor
  CD62L expression: significantly increased CD62L expression
[1]; TPO added to media containing 25 U/ml of IL-2
  NK cell phenotype other than CD62L: no phenotypic differences
Raji tumor cells; E:T 1:1
  mean percentage of dead Raji cells: 84%
Raji tumor cells; E:T 10:1
  mean percentage of dead Raji cells: 85%
Parental NK-92 cell line
  expansion of the parental NK-92 cell line: did not alter
GFP+ MPL+ population
  GFP+ MPL+ population in parallel cultures: 31%
[2]
  proliferation of c-MPL transduced NK cells: induce proliferation
721.221
  killing of 721.221 tumor targets: no significant killing augmentation
c-MPL transduced T cells; D6, TPO alone
  GFP fold-expansion of c-MPL transduced T cells: 5.96 fold
c-MPL transduced T cells; day 6, TPO plus LD IL-2
  GFP fold-expansion of c-MPL+ activated T cells: 11.39 fold
